A short description of the data set: refractive index (Na D-line) (dimensionless). Particulars: 293.1 K; 101.33 kPa; Liquid; Standard Abbe refractometry.

± gives the expanded uncertainty stated by the source.

These results are taken from the NIST ThermoML archive (doi:10.1016/j.fluid.2005.12.006).

Consider `CN(C)C=O` [dimethylformamide], for which the refractive index (commonly the speed of light in vacuum divided by its phase velocity in the sample) turned out to be 1.4281 ± 0.0007.
To `CCCCCCCCCCCC` [dodecane] belongs 1.422 ± 0.0007; to `CCC(C)c1ccccc1` (stereo not drawn) [(1-methylpropyl)benzene], 1.489 ± 0.0007.
